pIC50: −log10 of the molar value.
Columns and labels:
MCF7 [1] = assay: Cytostaticity against MCF-7 cells in the presence of 1 uMolar E2 (estradiol); assay type: functional, cell-based; details: Homo sapiens
Estrogen receptor = Estrogen receptor (Homo sapiens, UniProt Q92731+P03372); details: mvln
MCF7 [2] = assay: Cytotoxicity against MCF-7 cells in the absence of 1 uM E2 (estradiol); assay type: functional, Homo sapiens
MCF7 [3] = assay: Cytotoxicity against MCF-7 cells in presence of 1 uM E2 (estradiol); assay type: functional, Homo sapiens
[4] = target: Estrogen receptor (Ovis aries) (UniProt P49885+Q9TU15); assay: Relative binding affinity for estrogen receptor in lamb uterus cytosol relative to estradiol; assay type: protein assay

**Q.** How did the pIC50 (MCF7 [1]) turn out when `CCCCC/C=C(/c1ccc(O)cc1)c1ccc(OCCN(C)C)cc1` was run?
**A.** The pIC50 was 5.62.

**Q.** What about the IC50 (Estrogen receptor) of the same compound?
**A.** Its IC50 is 1500 nM.

**Q.** And the Cytotoxicity (MCF7 [2])?
**A.** Its Cytotoxicity is 8.5 µM.

**Q.** And the Cytotoxicity (MCF7 [3])?
**A.** Its Cytotoxicity is 9.3 µM.

**Q.** How did the pIC50 (MCF7 [1]) turn out when `CCCCC/C=C(\c1ccc(O)cc1)c1ccc(OCCN2CCCC2)cc1` was run?
**A.** The pIC50 was 5.80.

**Q.** What about the IC50 (Estrogen receptor) of the same compound?
**A.** Its IC50 is 3300 nM.

**Q.** What about the Cytotoxicity (MCF7 [2]) of the same compound?
**A.** The Cytotoxicity was 2.9 µM.

**Q.** And the Cytotoxicity (MCF7 [3])?
**A.** Its Cytotoxicity is 2.9 µM.

**Q.** What does the source list for `CCCC/C(CC)=C(/c1ccc(O)cc1)c1ccc(OCCN(CC)CC)cc1.CCCC/C(CC)=C(\c1ccc(O)cc1)c1ccc(OCCN(CC)CC)cc1`?
**A.** pIC50 (MCF7 [1]): 6.00; IC50 (Estrogen receptor): 150 nM; Cytotoxicity (MCF7 [2]): 2.8 µM; Cytotoxicity (MCF7 [3]): 2.8 µM

**Q.** With `CCCCCCCCCCCCCC/C=C(/c1ccc(O)cc1)c1ccc(OCCN(CC)CC)cc1` as the compound, how does the pIC50 (MCF7 [1]) read?
**A.** The pIC50 was 5.10.

**Q.** And the IC50 (Estrogen receptor)?
**A.** Its IC50 is 8000 nM.

**Q.** And the Cytotoxicity (MCF7 [2])?
**A.** Its Cytotoxicity is 30 µM.

**Q.** What about the Cytotoxicity (MCF7 [3]) of the same compound?
**A.** The Cytotoxicity was 30 µM.

**Q.** Which results are given for `CCCCC/C=C(\c1ccc(O)cc1)c1ccc(OCCN(CC)CC)cc1`?
**A.** pIC50 (MCF7 [1]): 5.96; relative binding affinity (RBA) [4]: 0.1; IC50 (Estrogen receptor): 3200 nM; Cytotoxicity (MCF7 [2]): 2.7 µM; Cytotoxicity (MCF7 [3]): 3.2 µM

**Q.** Which results are given for `CCCCCC=C(c1ccc(OCCN(CC)CC)cc1)c1ccc(OCCN(CC)CC)cc1`?
**A.** pIC50 (MCF7 [1]): 6.15; IC50 (Estrogen receptor): 6000 nM; Cytotoxicity (MCF7 [2]): 2.7 µM; Cytotoxicity (MCF7 [3]): 1.3 µM

**Q.** Which results are given for `CCCCC/C=C(/c1ccc(O)cc1)c1ccc(OCCN(CC)CC)cc1`?
**A.** pIC50 (MCF7 [1]): 5.80; IC50 (Estrogen receptor): 900 nM; Cytotoxicity (MCF7 [2]): 2.9 µM; Cytotoxicity (MCF7 [3]): 3.2 µM

**Q.** Which results are given for `CCCC/C=C(/c1ccc(O)cc1)c1ccc(OCCN(CC)CC)cc1`?
**A.** pIC50 (MCF7 [1]): 5.77; IC50 (Estrogen receptor): 500 nM; Cytotoxicity (MCF7 [2]): 4.4 µM; Cytotoxicity (MCF7 [3]): 5.2 µM

**Q.** Which results are given for `CCCCC/C=C(\c1ccc(O)cc1)c1ccc(OCCN(C)C)cc1`?
**A.** pIC50 (MCF7 [1]): 5.77; IC50 (Estrogen receptor): 1800 nM; Cytotoxicity (MCF7 [2]): 2.9 µM; Cytotoxicity (MCF7 [3]): 3 µM

**Q.** With `CC(C)N(CCOc1ccc(C(=C2CCCCC2)c2ccc(OCCN(C(C)C)C(C)C)cc2)cc1)C(C)C` as the compound, how does the pIC50 (MCF7 [1]) read?
**A.** The pIC50 was 5.38.

**Q.** What about the IC50 (Estrogen receptor) of the same compound?
**A.** The IC50 was 2100 nM.

**Q.** And the Cytotoxicity (MCF7 [2])?
**A.** The Cytotoxicity was 30 µM.

**Q.** What about the Cytotoxicity (MCF7 [3]) of the same compound?
**A.** The Cytotoxicity was 8 µM.

**Q.** With `CCN(CC)CCOc1ccc(/C(=C/C(C)C)c2ccc(O)cc2)cc1` as the compound, how does the pIC50 (MCF7 [1]) read?
**A.** The pIC50 was 5.77.

**Q.** What about the IC50 (Estrogen receptor) of the same compound?
**A.** The IC50 was 1700 nM.

**Q.** And the Cytotoxicity (MCF7 [2])?
**A.** Its Cytotoxicity is 8.4 µM.

**Q.** What about the Cytotoxicity (MCF7 [3]) of the same compound?
**A.** Its Cytotoxicity is 8.8 µM.

**Q.** With `CC/C(=C(\c1ccc(O)cc1)c1ccc(OCCN(C)C)cc1)c1ccccc1` as the compound, how does the pIC50 (MCF7 [1]) read?
**A.** Its pIC50 is 5.10.

**Q.** What about the Cytotoxicity (MCF7 [2]) of the same compound?
**A.** The Cytotoxicity was 6 µM.

**Q.** What about the Cytotoxicity (MCF7 [3]) of the same compound?
**A.** Its Cytotoxicity is 9.4 µM.

**Q.** `CCCCCC/C=C(\c1ccc(O)cc1)c1ccc(OCCN(CC)CC)cc1` was tested. Which pIC50 (MCF7 [1]) did it give?
**A.** Its pIC50 is 5.92.

**Q.** And the IC50 (Estrogen receptor)?
**A.** The IC50 was 2500 nM.

**Q.** And the Cytotoxicity (MCF7 [2])?
**A.** The Cytotoxicity was 2.8 µM.

**Q.** And the Cytotoxicity (MCF7 [3])?
**A.** The Cytotoxicity was 3.8 µM.

**Q.** With `CCCCCCCC/C=C(\c1ccc(O)cc1)c1ccc(OCCN(CC)CC)cc1` as the compound, how does the pIC50 (MCF7 [1]) read?
**A.** Its pIC50 is 5.80.

**Q.** What about the IC50 (Estrogen receptor) of the same compound?
**A.** Its IC50 is 4700 nM.

**Q.** What about the Cytotoxicity (MCF7 [2]) of the same compound?
**A.** The Cytotoxicity was 3.6 µM.

**Q.** What about the Cytotoxicity (MCF7 [3]) of the same compound?
**A.** The Cytotoxicity was 3 µM.

**Q.** How did the pIC50 (MCF7 [1]) turn out when `CCCC/C=C(\c1ccc(O)cc1)c1ccc(OCCN(CC)CC)cc1` was run?
**A.** Its pIC50 is 5.80.

**Q.** What about the IC50 (Estrogen receptor) of the same compound?
**A.** Its IC50 is 1500 nM.

**Q.** And the Cytotoxicity (MCF7 [2])?
**A.** The Cytotoxicity was 2.9 µM.

**Q.** And the Cytotoxicity (MCF7 [3])?
**A.** The Cytotoxicity was 3 µM.

**Q.** `CCCCCC/C=C(/c1ccc(O)cc1)c1ccc(OCCN(CC)CC)cc1` was tested. Which pIC50 (MCF7 [1]) did it give?
**A.** Its pIC50 is 5.80.

**Q.** And the IC50 (Estrogen receptor)?
**A.** Its IC50 is 1900 nM.

**Q.** And the Cytotoxicity (MCF7 [2])?
**A.** Its Cytotoxicity is 2.9 µM.

**Q.** What about the Cytotoxicity (MCF7 [3]) of the same compound?
**A.** Its Cytotoxicity is 3 µM.

**Q.** How did the pIC50 (MCF7 [1]) turn out when `CCN(CC)CCOc1ccc(/C(=C/Cc2ccccc2)c2ccc(O)cc2)cc1` was run?
**A.** The pIC50 was 5.77.

**Q.** And the IC50 (Estrogen receptor)?
**A.** Its IC50 is 1700 nM.

**Q.** And the Cytotoxicity (MCF7 [2])?
**A.** Its Cytotoxicity is 2.9 µM.

**Q.** And the Cytotoxicity (MCF7 [3])?
**A.** Its Cytotoxicity is 3 µM.

**Q.** With `CCCCCCCC/C=C(/c1ccc(O)cc1)c1ccc(OCCN(CC)CC)cc1` as the compound, how does the pIC50 (MCF7 [1]) read?
**A.** Its pIC50 is 5.77.

**Q.** What about the IC50 (Estrogen receptor) of the same compound?
**A.** Its IC50 is 3500 nM.

**Q.** And the Cytotoxicity (MCF7 [2])?
**A.** The Cytotoxicity was 5.1 µM.

**Q.** And the Cytotoxicity (MCF7 [3])?
**A.** The Cytotoxicity was 2.9 µM.

**Q.** `CCN(CC)CCOc1ccc(/C(=C\Cc2ccccc2)c2ccc(O)cc2)cc1` was tested. Which pIC50 (MCF7 [1]) did it give?
**A.** The pIC50 was 5.74.

**Q.** And the IC50 (Estrogen receptor)?
**A.** The IC50 was 1300 nM.

**Q.** And the Cytotoxicity (MCF7 [2])?
**A.** Its Cytotoxicity is 3.2 µM.

**Q.** What about the Cytotoxicity (MCF7 [3]) of the same compound?
**A.** The Cytotoxicity was 4.3 µM.

**Q.** What does the source list for `CC(C)N(CCOc1ccc(C(=C2CCCCC2)c2ccc(O)cc2)cc1)C(C)C`?
**A.** pIC50 (MCF7 [1]): 5.74; IC50 (Estrogen receptor): 200 nM; Cytotoxicity (MCF7 [2]): 3.8 µM; Cytotoxicity (MCF7 [3]): 5 µM

**Q.** With `CC/C(=C(\c1ccccc1)c1ccc(OCCN(C)C)cc1)c1ccccc1` [TAMOXIFEN] as the compound, how does the pIC50 (MCF7 [1]) read?
**A.** The pIC50 was 5.10.

**Q.** What about the Cytotoxicity (MCF7 [2]) of the same compound?
**A.** The Cytotoxicity was 9.8 µM.

**Q.** What about the Cytotoxicity (MCF7 [3]) of the same compound?
**A.** The Cytotoxicity was 13 µM.

**Q.** With `CC(C)C=C(c1ccc(OCCN(C(C)C)C(C)C)cc1)c1ccc(OCCN(C(C)C)C(C)C)cc1` as the compound, how does the pIC50 (MCF7 [1]) read?
**A.** The pIC50 was 5.80.

**Q.** And the IC50 (Estrogen receptor)?
**A.** The IC50 was 3100 nM.

**Q.** And the Cytotoxicity (MCF7 [2])?
**A.** The Cytotoxicity was 3.6 µM.

**Q.** And the Cytotoxicity (MCF7 [3])?
**A.** The Cytotoxicity was 4.5 µM.

**Q.** What does the source list for `CCCCCCCCCCCCCC/C=C(\c1ccc(O)cc1)c1ccc(OCCN(CC)CC)cc1`?
**A.** pIC50 (MCF7 [1]): 5.10; IC50 (Estrogen receptor): 9500 nM; Cytotoxicity (MCF7 [2]): 30 µM; Cytotoxicity (MCF7 [3]): 30 µM

**Q.** With `CCN(CC)CCOc1ccc(/C(=C\C(C)C)c2ccc(O)cc2)cc1` as the compound, how does the pIC50 (MCF7 [1]) read?
**A.** Its pIC50 is 5.62.

**Q.** What about the IC50 (Estrogen receptor) of the same compound?
**A.** Its IC50 is 500 nM.

**Q.** What about the Cytotoxicity (MCF7 [2]) of the same compound?
**A.** Its Cytotoxicity is 9.2 µM.

**Q.** What about the Cytotoxicity (MCF7 [3]) of the same compound?
**A.** The Cytotoxicity was 9.4 µM.

From ChEMBL document CHEMBL1129985, “Cytotoxicity and antiestrogenicity of a novel series of basic diphenylethylenes” (J Med Chem, 1997)
